{
  "source": "patent US20110306638A1",
  "about": "“BENZISOXAZOLE PIPERIDINYL DERIVATIVES, PHARMACEUTICAL COMPOSITIONS COMPRISING THE DERIVATIVES AND THEIR USE” (NHWA PHARMA. CORPORATION, priority 2008, published 2011)",
  "key": {"[1]": {"assay": "Acute toxicity, single intragastric administration to mice", "conditions": "mouse, in vivo, po, Bliss method", "excerpt": "Statistics were made according to Bliss method (“Experimental Design and Statistical Basis for Drug Evaluation”, Changxiao Liu, Ruiyuan Su, first edition, Military Medical Science Press, 1993, 80-90)."}, "mice": {"system": "mice", "assay": "Sedative effects in mice (spontaneous activities)", "type": "in vivo", "parameters": "unit not given here", "conditions": "single dose 20 mg/kg", "method": "Spontaneous activities of the mice were recorded by alternating current tube, Sedative effects were tested after single dose (20 mg/kg)."}, "[2]": {"molecular_target": "opioid receptor subtype μ (Homo sapiens, UniProt P35372)", "assay": "Competitive binding to opioid receptor subtype μ, [3H]Diprenorphine", "method": "(§1) The respective test compounds were added to the sample tube (final concentration of 10^−5M), incubated at 37° C. for 30 min and placed in ice bath to terminate the reaction. The reaction mixture was filtered through GF/C (Whatman) glass fiber filter by vacuum filtration on a Millipore sample collector. The filter was washed three times with 50 mM Tris-HCl (pH7.4), each with 4 ml; dried and transferred into a 0.5 ml Eppendorf tube, in which 0.5 ml lipophilic scintillation fluid was added. Radioactivity was detected by a LS6500 scintillation counter. Each concentration had three duplicate test tubes and each separate test was repeated 3 to 4 times.\n(§2) Specific binding CMP value for each sample tube=overall binding CPM value for each sample tube−CPM value of non-specific binding tube.\n(§3) [Inhibition percentage of competitive binding between the test compound and different opioid receptor subtypes (%)=(100%−specific binding (CPM value)of sample tube/specific binding(CPM value)of solvent group×100%)]\n(§4) Average was taken for each test drug from three duplicate tubes; each test was repeated two or more times."}, "Kunming mice": {"system": "Kunming mice", "assay": "Acetic acid-induced abdominal writhing test in mice", "type": "in vivo", "method": "Kunming mice, SPF KM mice purchased from […] SLAC LABORATORY ANIMAL CO. LTD and kept in normal environment.\nThe compounds were dissolved in water for injection at a concentration of 4 mg/ml, 2 mg/ml and 1 mg/ml and were given intragastrically to animals.\nThree different doses (10, 20, and 40 mg/kg) were administered to the test groups.\nAspirin was used as a positive control and acetic acid writhing test was used.\n30 mice (half male and half female) weighing 18-23 g were divided into five groups, including negative control group, positive control group, low dose group, medium dose group and high dose group:\nMice in test group received test drug (10 mg/kg, 20 mg/kg, 40 mg/kg) via intragastric administration. Negative control group received physiological saline (20 ml/kg) via oral administration. Positive control group received aspirin (200 mg/kg) via oral administration. One hour later, each group received 0.7% acetic acid 10 ml/kg intraperitoneally. Five minutes later, the number of writhes was counted within the subsequent 15 min period; inhibition percentage of writhing response in each test group was calculated by the following equation: […]"}, "[3]": {"molecular_target": "opioid receptor subtype κ (Homo sapiens, UniProt P41145)", "assay": "Competitive binding to opioid receptor subtype κ, [3H]Diprenorphine", "method": "as §1, §2, §3, §4"}, "[4]": {"system": "Salmonella typhimurium histidine auxotroph mutants TA97, TA98, TA100 and TA102", "assay": "Bacterial reverse mutation test (Ames test)", "type": "cell-based", "conditions": "5-5000 μg/plate, −S9 and +S9", "method": "Bacterial reverse mutation test on compound I-20 was performed on Salmonella typhimurium histidine auxotroph mutants TA97, TA98, TA100 and TA102 (purchased from MolTox company) using conventional procedures of Ames test.\nObservation period: colony counting was done 48 hours after cultivation at 37° C.\nDrug solutions with different concentrations were prepared with double distilled water, and the doses were 5, 50, 500, 1000, 5000 μg/plate.\nDirect effect of the test drug in the absence of metabolic activity was determined by standard plate incorporation assay. The composition of the test top layer was: 2.0 ml top layer, 0.1 ml drug solution, 0.1 ml bacteria solution and 0.5 ml phosphate buffer.\nPre-incubation was used in the determination of the drug's mutagenic effect in the presence of metabolic activity. The composition of the test top layer is: 2.0 ml top layer, 0.1 ml drug solution, 0.1 ml bacteria solution and 0.5 ml S9 mix.\nThe resulting drug solution, bacterial solution and S9 mix were first incubated at 35° C. for 30 min while shaking, and then tested according to standard plate incorporation assay. Each dose was tested in three plates, each mutant was tested in the absence or presence of metabolic activity (−S9 or +S9) and repeated twice, the number of revertant colonies was calculated as x±SD."}, "[5]": {"assay": "Animal model study of II-9 (repeated dosing, addiction potential, oral absorption)", "type": "in vivo"}, "5-HT2A receptor": {"molecular_target": "T1, 5-HT2A receptor (Homo sapiens, UniProt P28223)", "T1 construct": "expressed in transfected cells; host or cells: HEK293", "assay": "In-vitro competitive binding to 5-HT2A receptor, [3H]-Ketanserin, transformed HEK293 cells", "method": "All test samples were dissolved in DMSO at a concentration of 0.01 mol/L, and then diluted with deionized water to 100 umol/L.\nHEK293 cells were transformed with plasmid carriers containing the gene coding for 5-HT2A receptor protein by using calcium phosphate transformation. Stable cell strains which could stably express 5-HT2A receptor protein were obtained from the transformed cells by cultivating in a culture media containing G418, selecting monoclones of the cell and performing radioactive ligand binding assay.\nBeckman LS 6500 Scintillation Counter.\nHEK-293 cells were infected with recombined viruses containing various genes described above. […] Cells were centrifuged at 1000 rpm for 5 min Culture media was discarded, and cell bodies were collected and stored at −20° C. in a freezer. The cell bodies were resuspended with Tris-HCl reaction buffer during assay.\nAfter incubation at 37° C. for 15 min, the reaction mixture was immediately transferred into ice bath to terminate the reaction; the reaction mixture was quickly filtered through GF/C glass cellulose filter on a Millipore cell sample collector, and was then washed with eluting solution (50 mM Tris-HCl, PH 7.7, 3 ml×3) and dried in a microwave for 8-9 min. The filter was transferred into a 0.5 ml centrifuge tube, and 500 μl lipid soluble scintillation fluid was added. The centrifuge tube was allowed to stand in darkness for more than 30 min. Radioactivity was determined by counting Inhibition percentage of each compound on isotope ligand binding was calculated according to the following equation:\ninhibition percentage(I %)=cpm of overall binding tube−cpm of compound/cpm of overall binding tube−cpm of nonspecific binding tube×100%.\nEach compound was tested in two duplicate test tubes and two separate tests were performed."}, "[6]": {"conditions": "affinity to 5-HT2A receptor, concentration gradient test"}},
  "note": "Marks after values point to notes of the source that are not given here.",
  "data": [
    {"smiles": "N#Cc1ccc2ccn(CCCCN3CCC(c4noc5cc(F)ccc45)CC3)c2c1", "note": "[II-9, 1-(4-(4-(6-fluorobenzo[d]isoxazol-3-yl)piperidin-1-yl)butyl)-1H-indole-6-carbonitrile]", "values": [
      {"measurement": "LD50", "setting": "[1]", "result": 800, "unit": "mg/kg"},
      {"measurement": "Sedative effect", "setting": "mice", "result": "47*"},
      {"measurement": "affinity to opioid receptor subtype μ (in words)", "setting": "[2]", "result": "no obvious affinity"},
      {"measurement": "inhibition at 10 µM", "setting": "[2]; tested concentration 10^−5 mol/L, read-out: μ inhibition percentage of competitive binding", "result": "53.4 ± 0.7", "unit": "%"},
      {"measurement": "Inhibition percentage of writhing response", "setting": "Kunming mice; 10 mg/kg intragastric administration", "result": "100** %"},
      {"measurement": "Inhibition percentage of writhing response", "setting": "Kunming mice; 20 mg/kg intragastric administration", "result": "99.05* %"},
      {"measurement": "Inhibition percentage of writhing response", "setting": "Kunming mice; 40 mg/kg intragastric administration", "result": "100** %"},
      {"measurement": "affinity to opioid receptor subtype κ (in words)", "setting": "[3]", "result": "no obvious affinity"},
      {"measurement": "inhibition at 10 µM", "setting": "[3]; tested concentration 10^−5 mol/L, read-out: κ inhibition percentage of competitive binding", "result": "28.5 ± 1.3", "unit": "%"},
      {"measurement": "Ames test result", "setting": "[4]", "result": "negative"},
      {"measurement": "drug tolerance", "setting": "[5]; after repeated dosing", "result": "No drug tolerance is observed"},
      {"measurement": "potential for addiction", "setting": "[5]; in vivo", "result": "rather low"},
      {"measurement": "absorption through oral administration", "setting": "[5]; oral", "result": "well absorbed"},
      {"measurement": "IC50", "setting": "5-HT2A receptor; [6]", "result": 2.92, "unit": "nM"},
      {"measurement": "Ki", "setting": "5-HT2A receptor; [6]", "result": 1.97, "unit": "nM"},
      {"measurement": "inhibitory activity on 5-HT2A (in words)", "setting": "5-HT2A receptor; compared with Aripiprazole", "result": "potent inhibitory activities"},
      {"measurement": "inhibition at 10 µM", "setting": "5-HT2A receptor; read-out: 5-HT2A [3H]-Ketanserin inhibition percentage", "result": 99.3, "unit": "%"}
    ]}
  ]
}
